From article PMC6191541, “Small-Molecule Acetylation Controls the Degradation of Benzoate and Photosynthesis in Rhodopseudomonas palustris” (mBio, 2018)

Experiments:
MmBadL = target: T1, MmBadL (Paramagnetospirillum magneticum, UniProt Q2W1S9); assay: [[…]-14C]acetyl-CoA transfer, TLC phosphor imaging; format: biochemical; settings: co-substrate acetyl-CoA
T1 construct: gene amb3392; plasmid pMmBadL2, expressed in E. coli C41(lambda-DE3) pka12::kan+, purified; tag details in Text S1

GmBadL = target: T2, GmBadL (Geobacter metallireducens, UniProt Q39TU9); assay: [[…]-14C]acetyl-CoA transfer, TLC phosphor imaging; format: biochemical; settings: co-substrate acetyl-CoA
T2 construct: gene Gmet_2096; plasmid pGmBadL1, expressed in E. coli C41(lambda-DE3) pka12::kan+, purified; tag details in Text S1

BadM = target: T3, BadM (Rhodopseudomonas palustris, UniProt O07465); assay: EMSA with 6-FAM-labelled badDEFGAB promoter probe; settings: 72 nM BadM, 12 nM probe; 10 mM compound, blocks DNA binding; no effect at 5 mM
T3 construct: plasmid pRpBadM8, expressed in E. coli C41(lambda-DE3) pka12::kan+, purified; tag details in Text S1

[1] = target: T4, BadM (Rhodopseudomonas palustris) (UniProt O07465); assay: EMSA; settings: 25 µL; Tris 20 mM pH 7.5 (at 25°C), KCl 50 mM, DTT 1 mM, glycerol (rest of buffer not in the material); probe 12 nM (0.303 pmol), BadM 72 nM (1.8 pmol) …
T4 sequence: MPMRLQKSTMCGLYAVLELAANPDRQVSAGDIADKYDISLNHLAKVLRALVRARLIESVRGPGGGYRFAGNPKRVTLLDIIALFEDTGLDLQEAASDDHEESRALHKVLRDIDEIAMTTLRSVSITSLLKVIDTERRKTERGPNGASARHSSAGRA

T2 sequence (Q39TU9 entry or part of it): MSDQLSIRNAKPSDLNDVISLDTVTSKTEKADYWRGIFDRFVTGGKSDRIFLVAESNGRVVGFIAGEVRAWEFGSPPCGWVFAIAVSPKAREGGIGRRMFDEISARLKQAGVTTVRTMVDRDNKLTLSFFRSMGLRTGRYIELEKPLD
T1 sequence (Q2W1S9 entry or part of it): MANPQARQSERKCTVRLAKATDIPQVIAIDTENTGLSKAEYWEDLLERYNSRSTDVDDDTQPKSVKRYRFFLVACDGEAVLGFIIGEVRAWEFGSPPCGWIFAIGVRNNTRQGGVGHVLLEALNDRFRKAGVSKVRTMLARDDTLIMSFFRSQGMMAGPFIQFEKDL

## Nc1ccc(C(=O)O)cc1 [4-ABA, 4-aminobenzoate]
MmBadL
  [1-14C]acetyl-CoA transfer, TLC phosphor imaging: MmBadL and GmBadL acetylated 4-aminobenzoate producing 4-acetamidobenzoate
GmBadL
  [1-14C]acetyl-CoA transfer, TLC phosphor imaging: MmBadL and GmBadL acetylated 4-aminobenzoate producing 4-acetamidobenzoate

## CC(=O)Nc1ccccc1C(=O)O [2-ABA^Ac, 2-acetamidobenzoate]
BadM
  EMSA with 6-FAM-labelled badDEFGAB promoter probe: addition of 2-acetamidobenzoate blocked binding of BadM to its DNA target

## GTGATGCGGCCTGTCGAGCATGCCGGTCGTCCTCCCTGCCCGGCGGCTCTGCCGGGTCGCGCTGCCGGCCATTTTCCGGCCCAGCGATTTAAATGTAATCTAGTATCGGAATGCGATAATTAATTTGATGCGGATCAAATTTGGCAAAGGCACAGCCGACACGGGCCGACGCCGGCTCGTAGTCGGGAGGCTCAGATATCGATCGCGATCTT (double strand) [badDEFGAB promoter / badCD intergenic probe]
[1]
  binding: binds
